The source of these data is US12202832B2, “Heterocyclic compounds having a calcium-sensing receptor antagonistic activity” (TAKEDA PHARMACEUTICAL COMPANY LIMITED, priority 2017, dated 2025).

The test system of one data set is CSQ-Tg mice. The data set can be described thus: Effect on survival rate of heart failure animal model. The format is in vivo. Conditions: oral QD 68 days, control: candesartan cilexetil mono-administration. As for the experimental part:
FIG. 1 is a graph showing a result of Test Example 5 “Effect of Compound of Example 1 on Survival Rate of Heart Failure Animal Model”, that is, survival rates of each of the mono-administration group of candesartan cilexetil, the co-administration group of candesartan cilexetil and the compound of Example 1 at 10 mg/kg bodyweight/day, and the co-administration group of candesartan cilexetil and the compound of Example 1 at 30 mg/kg bodyweight/day (log-rank test, the co-administration group of candesartan cilexetil and the compound of Example 1 at 10 mg/kg bodyweight/day (p<0.05), the co-administration group of candesartan cilexetil and the compound of Example 1 at 30 mg/kg bodyweight/day (p<0.01)).
In this Test Example, effect of Example 1 on survival rate was examined using heart failure animal models. The mice reported in Larry R. Jones et al., J. Clin. Invest. 101: 1385-1393, 1998 were obtained from the University of Pennsylvania and bred in-house, which were cardiac-specific transgenic mice of Calsequestrin (CSQ) (CSQ-Tg mice) as the heart failure animal models. In the study, female mice were used, and dosing was started from the age of 5 weeks. The animals were fed with chow (CE-2, CLEA Japan, Inc.) and tap water under the condition of room temperature of 20 to 26° C., humidity of 40 to 70%, and lighting time of 12 hours/day (7:00 to 19:00). […]

The target in a further data set is T1, CYP3A4 (Homo sapiens, UniProt P08684).
T1 construct: Human liver microsomes purchased from XenoTech, LLC (Lenexa, KS) was used; tissue XenoTech, LLC (Lenexa, KS); host or cells: human liver microsomes
T1 sequence (P08684 whole entry): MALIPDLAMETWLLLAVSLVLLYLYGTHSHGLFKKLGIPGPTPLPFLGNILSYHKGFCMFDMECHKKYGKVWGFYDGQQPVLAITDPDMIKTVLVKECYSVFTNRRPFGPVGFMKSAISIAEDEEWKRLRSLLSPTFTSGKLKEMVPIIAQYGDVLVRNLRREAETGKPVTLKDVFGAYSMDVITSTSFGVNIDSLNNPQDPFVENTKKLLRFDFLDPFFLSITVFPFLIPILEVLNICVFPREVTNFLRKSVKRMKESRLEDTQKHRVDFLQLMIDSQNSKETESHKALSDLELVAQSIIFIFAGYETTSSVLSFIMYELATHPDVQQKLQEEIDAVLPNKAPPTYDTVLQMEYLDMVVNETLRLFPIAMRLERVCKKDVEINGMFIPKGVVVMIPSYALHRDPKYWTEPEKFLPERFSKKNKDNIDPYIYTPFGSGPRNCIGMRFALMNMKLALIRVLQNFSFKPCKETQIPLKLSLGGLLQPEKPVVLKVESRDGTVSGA
Put plainly: CYP3A4 TDI in human liver microsomes (testosterone 6β-hydroxylation). As to conditions: 30 μM test compound, 60 min vs 0 min preincubation, solvent DMSO/acetonitrile (1:4, v/v). The format is in vitro ADME. As for the experimental part: Human liver microsomes purchased from XenoTech, LLC (Lenexa, KS) was used. Test compounds were dissolved in acetonitrile or DMSO/acetonitrile (1:4, v/v). To a human liver microsomes solution adjusted with phosphate buffer (pH 7.4), the test compound solution was added to obtain a human liver microsomes reaction solution having the test compound concentration of 30 μM. To the human liver microsome reaction solution, NADPH production system was added, and the mixture was preincubated at 37° C. for 0 minutes or 60 minutes. After the preincubation, probe substrate testosterone was added, and testosterone metabolite 6β-hydroxytestosterone was analyzed by LC/MS/MS to evaluate CYP3A4 enzymatic activity.
The enzyme activity (% of control) at each preincubation point was calculated from the following equation: % of control={(activity of test compound addition group)/(activity of test compound non-addition group)}×100.
The remaining activity (% remaining) after 60 minutes of preincubation was calculated from the following equation: Remaining activity (%)={activity after 60 minutes (% of control60 min)}/{activity after 0 minutes (% of control0 min)}×100.
In general terms: Microsomes from liver hold many membrane-bound enzymes, among them those of drug oxidation.

Take `CCc1ccc([C@@](CC)(NC(=O)c2c(C)nn3c2N[C@@H](c2ccccc2)CC3(C)C)C(=O)N[C@@H](C)C(N)=O)cc1` [Example 1, (5R)-N-((2R)-1-(((2S)-1-Amino-1-oxopropan-2-yl)amino)-2-(4-ethylphenyl)-1-oxobutan-2-yl)-2,7,7-trimethyl-5-phenyl-4,5,6,7-tetrahydropyrazolo[1,5-a]pyrimidine-3-carboxamide]: the “Survival rate, log-rank test p” value was under 0.05 in the data set with CSQ-Tg mice (10 mg/kg bodyweight/day co-administered with candesartan cilexetil (1 mg/kg bodyweight/day)) and under 0.01 in the data set on CSQ-Tg mice (30 mg/kg bodyweight/day co-administered with candesartan cilexetil (1 mg/kg bodyweight/day)). Also, the “Remaining Activity” value at CYP3A4 was 96.2%.
